≈ marks a conversion by molar mass, not a printed value.
What was measured:
Assay type in all cases: cell-based
Streptococcus pneumoniae = assay: MIC by agar dilution, maxillary sinus isolates; conditions: S. pneumoniae (n = 85); for MIC / MIC50 / MIC90: Streptococcus pneumoniae; for MIC: 24 h
Protocol: (§1) Test strains were obtained from recent maxillary sinus aspiration. Identification of organisms was by standard methods (see, for example, Murray, P. R., et al. Manual of Clinical Microbiology. 6th ed. American Society of Microbiology 1995: 282-620).
(§2) Antimicrobial activity was tested against 250 selected isolates (Table 1).
(§3) The agar dilution method using replicate plating of the organisms onto a series of agar plates of increasing concentrations was used (see, for example, National Committee for Clinical Laboratory Standards. Methods for antimicrobial susceptibility tests for bacteria that growth aerobically. Approved standards M 7-A4. National Committee for Laboratory Standards, Villanova, Pa., 1997).
(§4) MICs were determined by using doubling dilutions of between 0.02-256 mg/L with an inoculum of 10^4 CFU in area of 5-8 mm.
(§5) Haemophilus Test Medium was used for Haemophilus spp. and Wilkins-Chalgren agar was used for anaerobes.

Haemophilus influenzae = assay: MIC by agar dilution, maxillary sinus isolates; conditions: H. influenzae (n = 45); for MIC / MIC50 / MIC90: Haemophilus influenzae; for MIC: 24 h
Protocol: as §1, §2, §3, §4, §5

Staphylococcus aureus = assay: MIC by agar dilution, maxillary sinus isolates; conditions: S. aureus (n = 31)
Protocol: as §1, §2, §3, §4, §5

[1] = test system: Haemophilus parainfluenzae; assay: MIC by agar dilution, maxillary sinus isolates; conditions: H. parainfluenzae (n = 10); for MIC: 24 h
Protocol: as §1, §2, §3, §4, §5

Anaerobic strains = assay: MIC by agar dilution, maxillary sinus isolates; conditions: for MIC: 24 h, Anaerobic strains (n = 22): 12 Bacteroides spp., 7 Peptostreptococcus spp., 3 Bacteroides urealyticus
Protocol: as §1, §2, §3, §4, §5

[2] = MIC by agar dilution, maxillary sinus isolates; conditions: Streptococcus spp.: 5 Enterobacteriaceae, 6 non-fermentative Gram negative bacilli, 2 Neisseria meningitidis, 2 beta-haemolytic Streptococcus
Protocol: as §1, §2, §3, §4, §5

Moraxella catarrhalis = assay: MIC by agar dilution, maxillary sinus isolates; conditions: M. catarrhalis (n = 45); for MIC / MIC50 / MIC90: Moraxella catarrhalis; for MIC: 24 h
Protocol: as §1, §2, §3, §4, §5

Streptococcus spp. = assay: MIC by agar dilution, maxillary sinus isolates; conditions: Streptococcus spp. (various other strains, 15)
Protocol: as §1, §2, §3, §4, §5

Row | Structure (SMILES) | MIC (Streptococcus pneumoniae) [µg/mL] | MIC (Haemophilus influenzae) [µg/mL] | MIC50 (Haemophilus influenzae) [µg/mL] | MIC90 (Haemophilus influenzae) [µg/mL] | MIC Range (Staphylococcus aureus) [µg/mL] | MIC [1] [µg/mL] | MIC (Anaerobic strains) [µg/mL] | MIC (Moraxella catarrhalis) [µg/mL] | MIC50 (Moraxella catarrhalis) [µg/mL] | MIC90 (Streptococcus pneumoniae) [µg/mL] | MIC50 (Anaerobic strains; Anaerobic strains (n = 22)) [µg/mL] | MIC 90% (Streptococcus pneumoniae) [µg/mL] | MIC50 (Staphylococcus aureus; Staphylococcus aureus) [µg/mL] | MIC Range [2] | other results
1 | CO/N=C1\CN(c2nc3c(cc2F)c(=O)c(C(=O)O)cn3C2CC2)CC1CN (racemic) [Gemifloxacin, (R,S)-7-(3-aminomethyl-4-methoxyiminopyrrolidin-1-yl)-1-cyclopropyl-6-fluoro-4-oxo-1,4-dihydro-1,8-naphthyridine-3-carboxylic acid] | 0.02 to 0.06 (≈ 0.0514 to 0.154 µM) | 0.02 to 0.03 (≈ 0.0514 to 0.077 µM) | ≤ 0.02 | ≤ 0.02 | 0.03 to 1 | 0.02 to 0.12 (≈ 0.0514 to 0.308 µM) | 0.03 to 0.25 (≈ 0.077 to 0.642 µM) | 0.02 to 0.03 (≈ 0.0514 to 0.077 µM) | ≤ 0.02 |  |  |  |  | ≦0.02-0.5 mg/L | MIC 90% (Haemophilus influenzae): ≦0.02 mg/L; MIC 90% (Moraxella catarrhalis): ≦0.02 mg/L; MIC90 (Moraxella catarrhalis): ≤ 0.02 µg/mL
2 | Cc1c(F)c(N2CCNC(C)C2)cc2c1c(=O)c(C(=O)O)cn2C1CC1 (centres unmarked) [Grepafloxacin] | 0.03 to 0.5 (≈ 0.0835 to 1.39 µM) | 0.02 to 0.03 (≈ 0.0556 to 0.0835 µM) | ≤ 0.02 | ≤ 0.02 | 0.06 to 0.25 | 0.02 to 0.12 (≈ 0.0556 to 0.334 µM) | 0.25 to 8 (≈ 0.696 to 22.3 µM) | 0.02 to 0.25 (≈ 0.0556 to 0.696 µM) | ≤ 0.02 | ≥ 0.25 | 0.25 (≈ 0.696 µM) | 0.25 (≈ 0.696 µM) | 0.12 (≈ 0.334 µM) | ≦0.02-1 mg/L | MIC50 (Streptococcus pneumoniae): 0.25 µg/mL (≈ 0.696 µM); MIC 90% (Haemophilus influenzae): ≦0.02 mg/L; MIC90 [1]: 0.1 µg/mL (≈ 0.278 µM); MIC90 (Anaerobic strains; Anaerobic strains (n = 22)): 8 µg/mL (≈ 22.3 µM); MIC 90% (Moraxella catarrhalis): ≦0.02 mg/L; MIC90 (Moraxella catarrhalis): ≤ 0.02 µg/mL
3 | C[C@H]1COc2c(N3CCN(C)CC3)c(F)cc3c(=O)c(C(=O)O)cn1c23 [Levofloxacin] | 0.12 to 2 (≈ 0.332 to 5.53 µM) | 0.02 to 0.03 (≈ 0.0553 to 0.083 µM) |  |  | 0.12 to 0.5 | 0.03 to 0.25 (≈ 0.083 to 0.692 µM) | 0.12 to 1 (≈ 0.332 to 2.77 µM) | 0.02 to 0.12 (≈ 0.0553 to 0.332 µM) |  |  |  | 1 (≈ 2.77 µM) |  | 0.03 to 0.25 µg/mL | MIC50 (Streptococcus spp.): 0.12 µg/mL (≈ 0.332 µM)
4 | CC1COc2c(N3CCN(C)CC3)c(F)cc3c(=O)c(C(=O)O)cn1c23 (centres unmarked) [Ofloxacin] | 0.25 to 4 (≈ 0.692 to 11.1 µM) | 0.02 to 0.06 (≈ 0.0553 to 0.166 µM) |  |  | 0.25 to 1 |  | 0.25 to 2 (≈ 0.692 to 5.53 µM) | 0.02 to 0.25 (≈ 0.0553 to 0.692 µM) |  |  | 0.5 (≈ 1.38 µM) | 2 (≈ 5.53 µM) | 0.5 (≈ 1.38 µM) | 0.06 to 0.5 µg/mL | 
5 | N[C@@H]1[C@H]2CN(c3nc4c(cc3F)c(=O)c(C(=O)O)cn4-c3ccc(F)cc3F)C[C@@H]12 [Trovafloxacin] | 0.02 to 0.12 (≈ 0.048 to 0.288 µM) | 0.02 to 0.06 (≈ 0.048 to 0.144 µM) | ≤ 0.02 |  |  | 0.02 to 0.12 (≈ 0.048 to 0.288 µM) | 0.06 to 4 (≈ 0.144 to 9.61 µM) | 0.02 to 0.06 (≈ 0.048 to 0.144 µM) | ≤ 0.02 |  |  |  | 0.03 (≈ 0.0721 µM) | ≦0.02-0.5 mg/L | MIC 90% (Staphylococcus aureus): 0.03 µg/mL (≈ 0.0721 µM); MIC50 [1]: 0.03 µg/mL (≈ 0.0721 µM)

Further lines, with some results ahead:

Row | MIC (Streptococcus pneumoniae) [µg/mL] | MIC (Haemophilus influenzae) [µg/mL] | MIC50 (Haemophilus influenzae) [µg/mL] | MIC90 (Haemophilus influenzae) [µg/mL] | MIC Range (Staphylococcus aureus) [µg/mL] | MIC [1] [µg/mL] | MIC (Anaerobic strains) [µg/mL] | MIC (Moraxella catarrhalis) [µg/mL] | MIC50 (Moraxella catarrhalis) [µg/mL] | MIC90 (Streptococcus pneumoniae) [µg/mL] | MIC50 (Anaerobic strains; Anaerobic strains (n = 22)) [µg/mL] | MIC 90% (Streptococcus pneumoniae) [µg/mL] | MIC50 (Staphylococcus aureus; Staphylococcus aureus) [µg/mL] | Structure (SMILES) | MIC Range [2] | other results
6 | 0.02 to 1 (≈ 0.0547 to 2.74 µM) |  | 0.25 (≈ 0.684 µM) | 2 (≈ 5.47 µM) | 0.06 to 2 | 0.03 to 1 (≈ 0.0821 to 2.74 µM) |  | 0.02 to 16 (≈ 0.0547 to 43.8 µM) |  | 0.03 (≈ 0.0821 µM) | 0.25 (≈ 0.684 µM) |  |  | CC1(C)S[C@@H]2[C@H](NC(=O)[C@H](N)c3ccc(O)cc3)C(=O)N2[C@H]1C(=O)O [Amoxycillin] |  | MIC50 (Streptococcus pneumoniae): 0.03 µg/mL (≈ 0.0821 µM); MIC 90% (Staphylococcus aureus): 1 µg/mL (≈ 2.74 µM); MIC90 (Staphylococcus aureus; Staphylococcus aureus): ≥ 1 µg/mL; MIC50 [1]: 0.06 µg/mL (≈ 0.164 µM); MIC90 [1]: 1 µg/mL (≈ 2.74 µM); MIC50 (Streptococcus spp.): 2 µg/mL (≈ 5.47 µM); MIC90 (Streptococcus spp.): 4 µg/mL (≈ 10.9 µM)
7 |  | 0.02 to 0.12 (≈ 0.0498 to 0.299 µM) | 0.13 (≈ 0.324 µM) |  | 0.03 to 0.12 |  |  |  |  |  |  |  |  | COc1c(N2C[C@@H]3CCCN[C@@H]3C2)c(F)cc2c(=O)c(C(=O)O)cn(C3CC3)c12 [Moxifloxacin] | ≦0.02-0.5 mg/L | 
8 | 0.03 to 0.5 (≈ 0.0765 to 1.27 µM) | 0.03 to 1 (≈ 0.0765 to 2.55 µM) |  |  |  |  | 0.25 to 16 (≈ 0.637 to 40.8 µM) | 0.02 to 1 (≈ 0.051 to 2.55 µM) | ≤ 0.02 | ≥ 0.25 |  | 0.5 (≈ 1.27 µM) |  | C[C@@H]1CN(c2c(F)c(N)c3c(=O)c(C(=O)O)cn(C4CC4)c3c2F)C[C@H](C)N1 [Sparfloxacin] | ≦0.02-0.5 mg/L | 
